These are literature values, as cited in patent US4847261A, “Alkoxy cycloalkanol esters of dihydrolysergic acid having peripheral serotonin antagonists properties” (Eli Lilly and Company, priority 1988, dated 1989).

The structures appear in SMILES notation.

The test system of data set [1] is 5HT2 receptors. The note with it: in words; mediated by 5HT2 receptors; cited from earlier work.
Data set [2] concerns 5HT2 receptors. The note with it: in words; cited from earlier work.

In the case of `CC(O)C(C)OC(=O)[C@@H]1C[C@@H]2c3cccc4c3c(cn4C(C)C)C[C@H]2N(C)C1` (stereo partly drawn) [LY53857, 1-isopropyl-6-methyl-8β-(1-methyl-2-hydroxy)propoxycarbonyl-5R-ergoline], the “antagonism of vascular contraction to serotonin” value in the data set with 5HT2 receptors [1] is “potent antagonist”. In the data set with 5HT2 receptors [2], the “peripheral serotonin antagonist activity among Garbrecht compounds” value is listed as “most active peripheral serotonin antagonist”.
